Measured values: ChEMBL document CHEMBL5463729, “Data for DCP probe BAY 1753011” (2023)
Active and inactive are the calls of the source. The rule behind the calls is not given here.

Columns and labels:
[1] = target: Dual specificity tyrosine-phosphorylation-regulated kinase 1A (Homo sapiens) (UniProt Q13627); experiment: Inhibition of DYRK1A(h) at 10.0 µM in the Eurofins Kinase panel; details: Compound concentration 10.0 uM
[2] = target: Serine/threonine-protein kinase NIM1 (Homo sapiens) (UniProt Q8IY84); experiment: Inhibition of NIM1(h) at 10.0 µM in the Eurofins Kinase panel; details: Compound concentration 10.0 uM
[3] = target: Glutamate NMDA receptor (Rattus norvegicus) (UniProt P35439+Q00959+Q00960+Q00961+Q62645+Q8VHN2+Q9R1M7); details: Compound concentration 10.0 uM
[4] = target: Serine/threonine-protein kinase 38 (Homo sapiens) (UniProt Q15208); experiment: Inhibition of NDR1(h) at 10.0 µM in the Eurofins Kinase panel; details: Compound concentration 10.0 uM
[5] = target: Glucocorticoid receptor (Homo sapiens) (UniProt P04150); details: Compound concentration 10.0 uM
[6] = target: TGF-beta receptor type-1 (Homo sapiens) (UniProt P36897); experiment: Inhibition of TGFBR1(h) at 10.0 µM in the Eurofins Kinase panel; details: Compound concentration 10.0 uM
Vasopressin V2 receptor = Vasopressin V2 receptor (Homo sapiens, UniProt P30518); experiment: Radiometric AVPR2 binding assay (Eurofins #287610)
[7] = target: CDC7/Cyclin B1 (Homo sapiens) (UniProt P14635+O00311); experiment: Inhibition of Cdc7/cyclinB1(h) at 10.0 µM in the Eurofins Kinase panel; type: protein-complex assay; details: Compound concentration 10.0 uM
[8] = target: Mitogen-activated protein kinase kinase kinase 2 (Homo sapiens) (UniProt Q9Y2U5); experiment: Inhibition of MEKK2(h) at 10.0 µM in the Eurofins Kinase panel; details: Compound concentration 10.0 uM
[9] = target: Eukaryotic elongation factor 2 kinase (Homo sapiens) (UniProt O00418); experiment: Inhibition of eEF-2K(h) at 10.0 µM in the Eurofins Kinase panel; details: Compound concentration 10.0 uM
[10] = target: Epidermal growth factor receptor (Homo sapiens) (UniProt P00533); experiment: Inhibition of EGFR(h) at 10.0 µM in the Eurofins Kinase panel; details: Compound concentration 10.0 uM
[11] = target: Ribosomal protein S6 kinase alpha-2 (Homo sapiens) (UniProt Q15349); experiment: Inhibition of Rsk3(h) at 10.0 µM in the Eurofins Kinase panel; details: Compound concentration 10.0 uM
[12] = target: Tyrosine-protein kinase ABL2 (Homo sapiens) (UniProt P42684); experiment: Inhibition of Arg(h) at 10.0 µM in the Eurofins Kinase panel; details: Compound concentration 10.0 uM
[13] = target: Mitogen-activated protein kinase 8 (Homo sapiens) (UniProt P45983); experiment: Inhibition of JNK1alpha1(h) at 10.0 µM in the Eurofins Kinase panel; details: Compound concentration 10.0 uM
[14] = target: Bone morphogenetic protein receptor type-2 (Homo sapiens) (UniProt Q13873); experiment: Inhibition of BMPR2(h) at 10.0 µM in the Eurofins Kinase panel; details: Compound concentration 10.0 uM
[15] = target: Death-associated protein kinase 1 (Homo sapiens) (UniProt P53355); experiment: Inhibition of DAPK1(h) at 10.0 µM in the Eurofins Kinase panel; details: Compound concentration 10.0 uM
[16] = target: Serine/threonine-protein kinase 32B (Homo sapiens) (UniProt Q9NY57); experiment: Inhibition of STK32B(h) at 10.0 µM in the Eurofins Kinase panel; details: Compound concentration 10.0 uM
[17] = target: Activin receptor type-2A (Homo sapiens) (UniProt P27037); experiment: Inhibition of ACTR2(h) at 10.0 µM in the Eurofins Kinase panel; details: Compound concentration 10.0 uM
[18] = target: Beta-adrenergic receptor kinase 1 (Homo sapiens) (UniProt P25098); experiment: Inhibition of GRK2(h) at 10.0 µM in the Eurofins Kinase panel; details: Compound concentration 10.0 uM
[19] = target: Casein kinase I isoform alpha (Homo sapiens) (UniProt P48729); experiment: Inhibition of CK1alpha(h) at 10.0 µM in the Eurofins Kinase panel; details: Compound concentration 10.0 uM
[20] = target: Sigma intracellular receptor 2 (Homo sapiens) (UniProt Q5BJF2); details: Compound concentration 10.0 uM
[21] = target: D(1A) dopamine receptor (Homo sapiens) (UniProt P21728); details: Compound concentration 10.0 uM
[22] = target: T1, Alpha-2A adrenergic receptor (Homo sapiens) (UniProt P08913); details: Compound concentration 10.0 uM
T1 sequence (whole entry): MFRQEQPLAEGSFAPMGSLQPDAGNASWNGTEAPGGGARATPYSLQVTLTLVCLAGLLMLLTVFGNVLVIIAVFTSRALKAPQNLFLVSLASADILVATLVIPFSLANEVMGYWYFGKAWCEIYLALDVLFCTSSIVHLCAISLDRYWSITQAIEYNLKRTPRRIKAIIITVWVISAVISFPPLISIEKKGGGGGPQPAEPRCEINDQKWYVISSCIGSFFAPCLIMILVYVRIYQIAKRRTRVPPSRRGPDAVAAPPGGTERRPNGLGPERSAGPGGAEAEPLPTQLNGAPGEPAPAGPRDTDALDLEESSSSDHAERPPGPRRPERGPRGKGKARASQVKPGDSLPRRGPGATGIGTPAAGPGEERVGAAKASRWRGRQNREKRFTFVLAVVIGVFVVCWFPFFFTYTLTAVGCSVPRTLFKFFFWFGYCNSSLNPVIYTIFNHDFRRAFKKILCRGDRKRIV

[23] = target: Dual specificity protein kinase CLK2 (Homo sapiens) (UniProt P49760); experiment: Inhibition of CLK2(h) at 10.0 µM in the Eurofins Kinase panel; details: Compound concentration 10.0 uM
[24] = target: Androgen receptor (Homo sapiens) (UniProt P10275); details: Compound concentration 10.0 uM
[25] = target: G protein-coupled receptor kinase 3 (Homo sapiens) (UniProt P35626); experiment: Inhibition of GRK3(h) at 10.0 µM in the Eurofins Kinase panel; details: Compound concentration 10.0 uM
[26] = target: ALK tyrosine kinase receptor (Homo sapiens) (UniProt Q9UM73); experiment: Inhibition of ALK(h) at 10.0 µM in the Eurofins Kinase panel; details: Compound concentration 10.0 uM
[27] = target: Ephrin type-B receptor 3 (Homo sapiens) (UniProt P54753); experiment: Inhibition of EphB3(h) at 10.0 µM in the Eurofins Kinase panel; details: Compound concentration 10.0 uM
[28] = target: Serine/threonine-protein kinase LATS2 (Homo sapiens) (UniProt Q9NRM7); experiment: Inhibition of LATS2(h) at 10.0 µM in the Eurofins Kinase panel; details: Compound concentration 10.0 uM
[29] = target: Serine/threonine-protein kinase PAK 5 (Homo sapiens) (UniProt Q9P286); experiment: Inhibition of PAK5(h) at 10.0 µM in the Eurofins Kinase panel; details: Compound concentration 10.0 uM
[30] = target: Serine/threonine-protein kinase 26 (Homo sapiens) (UniProt Q9P289); experiment: Inhibition of MST4(h) at 10.0 µM in the Eurofins Kinase panel; details: Compound concentration 10.0 uM
[31] = target: Serine/threonine-protein kinase haspin (Homo sapiens) (UniProt Q8TF76); experiment: Inhibition of Haspin(h) at 10.0 µM in the Eurofins Kinase panel; details: Compound concentration 10.0 uM
[32] = target: Cyclin-Y/Cyclin-dependent kinase 16 (Homo sapiens) (UniProt Q00536+Q8ND76); experiment: Inhibition of CDK16/cyclinY(h) at 10.0 µM in the Eurofins Kinase panel; type: protein-complex assay; details: Compound concentration 10.0 uM

SMILES | inhibition [1] | inhibition [2] | inhibition [3] | inhibition [4] | inhibition [5] | inhibition [6] | Ki (Vasopressin V2 receptor) | inhibition [7] | inhibition [8] | inhibition [9] | inhibition [10] | inhibition [11] | inhibition [12] | inhibition [13] | inhibition [14] | inhibition [15] | inhibition [16] | inhibition [17] | inhibition [18] | inhibition [19] | further results
O=c1n(Cc2cncn2-c2cccc(Cl)c2)nc(-c2ccc(Cl)cc2)n1C[C@H](O)C(F)(F)F | 3.54% | 3.02% | -4% | -2.95% | 32% | 3.39% | > 10 µM (not active) | 3.68% | 9.53% | -4.87% | -4.73% | -0.87% | 2.02% | -1.22% | 14.4% | -5.66% | -7.15% | 6.32% | -6.21% | -1.11% | inhibition [20]: 9.61%; inhibition [21]: -6%; inhibition [22]: -3.35%; inhibition [23]: -2.19%; inhibition [24]: 9%; inhibition [25]: -3.13%; inhibition [26]: -8.94%; inhibition [27]: 7.39%; inhibition [28]: 5.08%; inhibition [29]: 1.49%; inhibition [30]: -4.66%; inhibition [31]: -2.75%; inhibition [32]: 4.57%
C[C@H](O)c1nc(Cn2nc(-c3ccc(Cl)cc3)n(C[C@H](O)C(F)(F)F)c2=O)nn1-c1cccc(Cl)c1 [PECAVAPTAN] | 8.95% | 5.79% | -10% | -4.67% | 1% | 5.09% | 0.0006 µM (active) | 9.78% | 7.54% | -9.42% | -5.82% | 9.71% | -0.68% | -3.82% | 11.1% | -1.83% | -0.99% | 5.43% | 5.86% | -1.65% | inhibition [20]: 27.7%; inhibition [21]: 1%; inhibition [22]: 8.06%; inhibition [23]: -2.64%; inhibition [24]: 12%; inhibition [25]: 2.8%; inhibition [26]: -3.75%; inhibition [27]: 1.81%; inhibition [28]: 3.15%; inhibition [29]: -3.61%; inhibition [30]: -2.72%; inhibition [31]: 2.09%; inhibition [32]: -5.42%
